Test results published in patent US4191688A, “Amides of leurosine, leuroformine, desacetylleurosine and desacetylleuroformine” (Eli Lilly and Company, priority 1978, dated 1980).
“And” between values parts separate entries of the source, which are not always exact repeats. Equal entries are not always repeated. Where two headings read alike, the source gives them in different places.

Experiments:
[1] = test system: experimental malignancies; conditions: animals; cited from earlier work
[2] = Stability on standing in air; type: physicochemical; conditions: upon standing in air
P1534 murine leukemia = conditions: Hargrove, Lloydia 1964, cited from earlier work
tumor = conditions: Owellen 1975; Cullinan 1975; cited from earlier work
pKa titration = type: physicochemical; conditions: for pKa: 66 percent dmf, in 66 percent DMF
Procedure: A reaction mixture containing 450 mg. of leurosine, 15 ml. of tetrahydrofurane (THF), 8 ml. of anhydrous hydrazine, and 6 ml. of methanol were heated in a sealed glass bomb for 3 days at 50° C. The bomb was opened, the solvents removed in vacuo, and the resulting residue comprising 4-desacetylleurosine C-3 carboxhydrazide formed in the above reaction, was dissolved in methylene dichloride. The methylene dichloride solution was washed with water and dried. Removal of the solvent in vacuo yielded 4-desacetylleurosine C-3 carboxhydrazide as a residue shown by TLC to contain trace quantities of leurosine and of 4-desacetylleurosine. Pure 4-desacetylleurosine C-3 carboxhydrazide (1-spot material) was prepared by chromatographing the residue over silica using 1:1:1 methylenedichloride/ethyl acetate/methanol as the eluant. Fractions shown by TLC to contain 4-desacetylleurosine C-3 carboxhydrazide were combined.
Titration; pKa at 5.3, 7.0

Gardner lymphosarcoma = assay: Activity versus Gardner Lymphosarcoma in mice; type: in vivo; conditions: 9 days, usually intraperitoneal
Procedure: The following table--Table 1--gives the results of experiments in which mice bearing transplanted Gardner lymphosarcoma were treated successfully with a compound of this invention. In the table, column 1 gives the name of the compound; column 2, the dose level and column 3, the percent inhibition of tumor growth.

P388 leukemia = assay: Activity against P388 leukemia in mice; type: in vivo; conditions: 3 days apart
[3] = titration, free base, solvent not stated

CC[C@@]1(O)CN2CCc3c([nH]c4ccccc34)[C@@](C(=O)OC)(c3cc4c(cc3OC)N(C)[C@@H]3[C@]45CCN4CC=C[C@@](CC)(C[C@]3(O)C(=O)OC)[C@H]45)C[C@@H](C2)C1O (stereo partly shown) [4-desacetoxy-3'-hydroxyvinblastine]
activity in the treatment of experimental malignancies [1]: active

CC[C@]12CN3CCc4c([nH]c5ccccc45)[C@@](C(=O)OC)(c4cc5c(cc4OC)N(C)[C@H]4[C@@](O)(C(=O)OC)[C@H](OC(C)=O)[C@]6(CC)C=CCN7CC[C@]54[C@@H]76)C[C@H](C3)[C@H]1O2 [leurosine]
auto-oxidation [2]: auto-oxidizes to a 5'-hydroxy derivative
activity in the treatment of experimental malignancies [1]: active

CCC1(O)CC2CN(CCc3c([nH]c4ccccc34)C(C(=O)OC)(c3cc4c(cc3OC)N(C)C3C(O)(C(=O)OC)C(OC(C)=O)C5(CC)C=CCN6CCC43C65)C2)C1 (stereo not shown) [vincaleukoblastine]
activity in the treatment of experimental malignancies [1]: active

CCC1(O)CN2CCc3c([nH]c4ccccc34)C(C(=O)OC)(c3cc4c(cc3OC)N(C)C3C(O)(C(=O)OC)C(OC(C)=O)C5(CC)C=CCN6CCC43C65)CC(C2)C1O (stereo not shown) [vincadioline]
activity in the treatment of experimental malignancies [1]: active

CCC1(O)CC2CN(CCc3c([nH]c4ccccc34)C(C(=O)OC)(c3cc4c(cc3OC)N(C)C3C(O)(C(=O)OC)C(O)C5(CC)C=CCN6CCC43C65)C2)C1 (stereo not shown) [4-desacetyl VLB]
toxicity (P1534 murine leukemia): toxic material
in vivo chemotherapeutic activity (P1534 murine leukemia; P1534 murine leukemia system): little in vivo chemotherapeutic activity
anti-tumor activity (tumor): active anti-tumor agent

CCC12CN3CCc4c([nH]c5ccccc45)C(C(=O)OC)(c4cc5c(cc4OC)N(C)C4C(O)(C(=O)NCCSSCCNC(=O)C6(O)C(O)C7(CC)C=CCN8CCC9(c%10cc(C%11(C(=O)OC)CC%12CN(CCc%13c%11[nH]c%11ccccc%13%11)CC%11(CC)OC%12%11)c(OC)cc%10N(C)C69)C87)C(O)C6(CC)C=CCN7CCC54C76)CC(C3)C1O2 (stereo not drawn) [Bis[β-(4-desacetylleurosine C-3 carboxamido)ethyl]disulfide]
pKa (first) (pKa titration; [3]): 5.3
pKa (second) (pKa titration; [3]): 7.0

CCC1(O)CN2CCc3c([nH]c4ccccc34)C(C(=O)OC)(c3cc4c(cc3OC)N(C)C3C(O)(C(=O)OC)C(OC(C)=O)C5(CC)C=CCN6CCC43C65)CC(O)(C2)C1 (stereo not shown) [leurocolombine]
activity in the treatment of experimental malignancies [1]: active

CCC12CN3CCc4c([nH]c5ccccc45)C(C(=O)OC)(c4cc5c(cc4OC)N(C=O)C4C(O)(C(N)=O)C(O)C6(CC)C=CCN7CCC54C76)CC(C3)C1O2 (stereo not shown) [4-desacetylleuroformine C-3 carboxamide, 4-Desacetylleuroformine C-3 Carboxamide]
Percent Inhibition of tumor growth (Gardner lymphosarcoma; 12 mg/kg per day): 39%

CC[C@@H]1C[C@@H]2CN(CCc3c([nH]c4ccccc34)[C@@](C(=O)OC)(c3cc4c(cc3OC)N(C)[C@H]3[C@@](O)(C(=O)OC)[C@H](OC(C)=O)[C@]5(CC)C=CCN6CC[C@]43[C@@H]65)C2)C1 [deoxy VLB "A"]
activity in the treatment of experimental malignancies [1]: active

CCC12CN3CCc4c([nH]c5ccccc45)C(C(=O)OC)(c4cc5c(cc4OC)N(C)C4C(O)(C(=O)NCCSSCCNC(=O)C6(O)C(O)C7(CC)C=CCN8CCC9(c%10cc(C%11(C(=O)OC)CC%12CN(CCc%13c%11[nH]c%11ccccc%13%11)CC%11(CC)OC%12%11)c(OC)cc%10N(C)C69)C87)C(O)C6(CC)C=CCN7CCC54C76)CC(C3)C1O2 (stereo not drawn) [Bis[β-(4-desacetylleurosine C-3 carboxamide)ethyl]disulfide disulfate]
prolongation of survival time (P388 leukemia; 15 mg/kg on three occasions): 55%
prolongation of survival time (P388 leukemia; 30 mg/kg on three occasions): 46%

CCC12CN3CCc4c([nH]c5ccccc45)C(C(=O)OC)(c4cc5c(cc4OC)N(C)C4C(O)(C(=O)NCCO)C(O)C6(CC)C=CCN7CCC54C76)CC(C3)C1O2 (stereo not drawn) [4-Desacetylleurosine C-3 N-(β-hydroxyethyl)carboxamide]
Percent Inhibition of tumor growth (Gardner lymphosarcoma; 6 mg/kg per day): 100%
Percent Inhibition of tumor growth (Gardner lymphosarcoma; 12 mg/kg per day): 100% and 98%

CCC12CN3CCc4c([nH]c5ccccc45)C(C(=O)OC)(c4cc5c(cc4OC)N(C)C4C(O)(C(=O)NN)C(O)C6(CC)C=CCN7CCC54C76)CC(C3)C1O2 (stereo not shown) [4-desacetylleurosine C-3 carboxhydrazide, 4-Desacetylleurosine C-3 Carboxhydrazide]
pKa (pKa titration; read-out: pKa (first)): 5.32
pKa (pKa titration; read-out: pKa (second)): 7.12

CCC12CN3CCc4c([nH]c5ccccc45)C(C(=O)OC)(c4cc5c(cc4OC)N(C)C4C(O)(C(=O)NC)C(O)C6(CC)C=CCN7CCC54C76)CC(C3)C1O2 (stereo not shown) [4-Desacetylleurosine C-3 N-Methyl Carboxamide]
Percent Inhibition of tumor growth (Gardner lymphosarcoma; 3 mg/kg per day): 33%
Percent Inhibition of tumor growth (Gardner lymphosarcoma; 6 mg/kg per day): 100%
Toxicity (printed in Percent Inhibition column) (Gardner lymphosarcoma; 12 mg/kg per day): Toxic

CCC12CN3CCc4c([nH]c5ccccc45)C(C(=O)OC)(c4cc5c(cc4OC)N(C=O)C4C(O)(C(=O)OC)C(OC(C)=O)C6(CC)C=CCN7CCC54C76)CC(C3)C1O2 (stereo not shown) [leuroformine]
activity in the treatment of experimental malignancies [1]: active

CC[C@]1(O)C[C@@H]2CN(CCc3c([nH]c4ccccc34)[C@@](C(=O)OC)(c3cc4c(cc3OC)N(C)[C@@H]3[C@]45CCN4CC=C[C@@](CC)(C[C@]3(O)C(=O)OC)[C@H]45)C2)C1 [4-desacetoxy vinblastine]
activity in the treatment of experimental malignancies [1]: active

CCC12CN3CCc4c([nH]c5ccccc45)C(C(=O)OC)(c4cc5c(cc4OC)N(C)C4C(O)(C(N)=O)C(O)C6(CC)C=CCN7CCC54C76)CC(C3)C1O2 (stereo not shown) [4-desacetylleurosine C-3 carboxamine, 4-Desacetylleurosine C-3 Carboxamide]
Percent Inhibition of tumor growth (Gardner lymphosarcoma; 3 mg/kg per day): 23%
Percent Inhibition of tumor growth (Gardner lymphosarcoma; 6 mg/kg per day): 100%
Toxicity (printed in Percent Inhibition column) (Gardner lymphosarcoma; 12 mg/kg per day): Toxic

CCC1(O)CC2CN(CCc3c([nH]c4ccccc34)C(C(=O)OC)(c3cc4c(cc3OC)N(C=O)C3C(O)(C(=O)OC)C(OC(C)=O)C5(CC)C=CCN6CCC43C65)C2)C1 (stereo not shown) [leurocristine]
activity in the treatment of experimental malignancies [1]: active
